Assay results from US10532064B2, “Biophosphonate compounds and gamma delta T cell-mediated therapy for treating epstein-barr virus-associated disorders” (priority 2014, dated 2020).

What was measured:
[1] = test system: cytolytic activities of Vγ9Vδ2-T cells against EBV-LCL; test: Blocking of Vγ9Vδ2-T cell cytotoxicity against EBV-LCL by inhibitors and neutralizing antibodies; type: cell-based, human; details: E:T 10:1; antibodies 10 μg/ml, CMA and Bcl-2 1 μg/ml
Experimental: FIG. 1A: Phenotypes of EBV-LCL and autologous normal human B cells. The white histograms represent MICA/B, Fas, FasL DR4 and DR5, and the gray histograms represent isotype controls. […] FIG. 1C, 1D, 1G: PAM-expanded Vγ9Vδ2 T cells purified by positive selection were co-cultured with autologous EBV-LCL or normal B cells at different E:T ratios (FIG. 1C) or an E:T ratio of 10:1 (FIGS. 1D and 1G) for 4-6 hours. FIG. 1D: The Vγ9Vδ2 T cells were directly co-cultured with or physically separated from autologous EBV-LCLs for 6 hours by using a transwell system. […] FIG. 1G: The perforin inhibitor CMA, granzyme B inactivator Bcl-2, anti-NKG2D (αNKG2D), anti-TRAIL (αTRAIL) and anti-FasL (αFasL) blocking antibodies, or their relevant isotype control (mouse IgG1, mIgG1) were used in co-culture of EBV-LCL and their autologous PAM-expanded Vγ9Vδ2 T cells. The cytotoxicity was shown as the percentage of inhibition relative to those without any treatment. All the data shown as mean±SEM are representative of four independent experiments. *p<0.05.

Vγ9Vδ2-T cells = test: Expansion of Vγ9Vδ2-T cells from huPBMC in vitro with PAM and IL-2; type: cell-based, human
Experimental: The data are representative of 4 independent experiments. […] Data are representative of 4 independent experiments. […] Data are representative of 4 independent experiments.
Briefly, huPBMC were cultured in RPMI 1640 medium supplemented with 10% FBS. Pamidronate was added at day 0 and day 3 to a final concentration 9 μg/ml.
Human PBMCs were isolated from buffy coat preparation or anticoagulated peripheral blood by Ficoll-paque (GE Health life Science) gradient centrifugation. The PBMCs were cultured in 10% FBS-RPMI1640 supplemented with 15 ul of expansion reagent A; 25 ul of expansion reagent B was added from day 3 post culture. […] Data are representative for 4 independent experiments.

EBV-LPD [2] = test: Control of EBV-LPD by pamidronate in humanized mice (whole huPBMC); type: in vivo
Experimental: FIG. 8A: Protocol for the control of EBV-LPD by pamidronate (PAM) in humanized mice. Humanized mice were treated with PAM or PBS at day 0, 7, 14, 21, 28 after inoculation of EBV-LCL. FIG. 8B-8D: After treatment with PAM (n=8) or PBS (n=7), the survival (FIG. 8B), tumor incidence (FIG. 8C) and tumor volume (FIG. 8D) were measured at the indicated time.
(§1) Vγ9Vδ2-T-cell-depleted huPBMC were obtained after double depletions of […] by positive selection with magnetic microbeads. Rag2^−/−γc^−/− mice were transplanted with whole huPBMC or Vγ9Vδ2-T-cell-depleted huPBMC from the same healthy human donor. […] Humanized mice reconstituted with whole huPBMC (PBMC) or Vγ9Vδ2-T-cell-depleted huPBMC (PBMC-γδ-T) were inoculated with EBV-LCL and treated with pamidronate or PBS according to the protocol shown in FIG. 8A. The survival (FIG. 9A), tumor incidence (FIG. 9B) and tumor volume (FIG. 9C) in humanized mice (PBMC+PAM, n=12; PBMC-γδ-T+PAM, n=7; PBMC-γδ-T+PBS, n=6) are shown.
All animal studies were approved and performed in compliance with the guidelines for the use of experimental animals by the Committee on the Use of Live Animals in the Teaching and Research, the University of Hong Kong. Humanized mice were generated in 4-5 weeks old male or female Rag2^−/−γc^−/− mice by reconstitution of EBV seropositive whole huPBMC or Vγ9Vδ2-T-cell-depleted huPBMC as we described before (Tu et al., 2011). […] Humanized mice or 6-8 week old Rag2^−/−γc^−/− mice were inoculated s.c. with EBV-LCL or EGFP-expressing EBV-LCL (0.1×10^6/mouse). […] For humanized mice, a human equivalent dose of PAM (10 mg/kg body weight; Pamisol; Hospira Austrilia Pty Led) was injected i.p. at indicated time. The mice treated with an equivalent volume of PBS were used as controls. The signs of disease (loss of activity, weight loss, ruffled hair, palpable tumors, and ascites) and survival of mice were monitored. Mice with more than 17 mm of diameter subcutaneous tumor were sacrificed and counted as dying. Otherwise, mice were followed for 100 or 170 days and then killed. All mice were examined for postmortem evidence of tumor. The tumors and organs were collected for histology and immunohistochemistry assays.
After inoculation with EBV-LCL (1×10^5/mouse) s.c., humanized mice were injected intraperitoneally (i.p.) with pamidronate (10 mg/kg body weight) at day 0, 7, 14, 21 and 28 post EBV-LCL inoculation (FIG. 8A). PBS-treated mice were used as controls.
Mice reconstituted with whole huPBMC or Vγ9Vδ2-T-cell-depleted huPBMC were inoculated with EBV-LCLs s.c. and injected with pamidronate (10 mg/kg body weight) i.p. at day 0, 7, 14, 21 and 28 post EBV-LCL inoculation.

EBV-LPD [3] = test: Pamidronate in humanized mice reconstituted with Vγ9Vδ2-T-cell-depleted huPBMC; type: in vivo; details: 10 mg/kg i.p. day 0, 7, 14, 21, 28
From the text: as §1
All animal studies were approved and performed in compliance with the guidelines for the use of experimental animals by the Committee on the Use of Live Animals in the Teaching and Research, the University of Hong Kong. Humanized mice were generated in 4-5 weeks old male or female Rag2^−/−γc^−/− mice by reconstitution of EBV seropositive whole huPBMC or Vγ9Vδ2-T-cell-depleted huPBMC as we described before (Tu et al., 2011). […] The signs of disease (loss of activity, weight loss, ruffled hair, palpable tumors, and ascites) and survival of mice were monitored. Mice with more than 17 mm of diameter subcutaneous tumor were sacrificed and counted as dying. […]

[4] = post 20 days of in vitro culture in the presence of PAM and IL-2
[5] = Example 5, vs PBS-treated humanized mice
[6] = Example 6, humanized mice with whole huPBMC

Row | Compound | effect on cytolytic activity of Vγ9Vδ2-T cells against EBV-LCL [1] | activation and expansion of Vγ9Vδ2-T cells (Vγ9Vδ2-T cells; huPBMC, PAM 9 μg/mL, rhIL-2 from day 3) | expansion of Vγ9Vδ2-T cells (mean) (Vγ9Vδ2-T cells; [4]) [fold] | expansion of Vγ9Vδ2-T cells (range) (Vγ9Vδ2-T cells; [4]) | percentage of Vγ9Vδ2-T cells within the PBMCs (mean) (Vγ9Vδ2-T cells; [4]) [%] | percentage of Vγ9Vδ2-T cells within the PBMCs (range) (Vγ9Vδ2-T cells; post 20 days of in vitro culture in the presence of PAM and IL-2, baseline 1-5% (mean 3%), 4 experiments) | mice died within 100 days (EBV-LPD [2]; 10 mg/kg i.p. day 0, 7, 14, 21, 28, 1 out of 8 mice, all PBS mice died) [%] | mice with subcutaneous tumor growth within 100 days (EBV-LPD [2]; 10 mg/kg i.p. day 0, 7, 14, 21, 28, 3 out of 8 mice) [%] | frequency of Vγ9Vδ2-T cells in the peripheral blood (EBV-LPD [2]; 10 mg/kg i.p., vs PBS) | persistence of Vγ9Vδ2-T cells in the peripheral blood (EBV-LPD [2]; EBV-LCL-grafted humanized mice, pamidronate-treated) | survival (EBV-LPD [2]; Example 5, PAM n=8 vs PBS n=7) | tumor incidence (EBV-LPD [2]; [5]) | tumor volume (EBV-LPD [2]; [5]) | tumor occurrence (EBV-LPD [2]; [6]) | tumor volume (EBV-LPD [2]; [6]) | survival (EBV-LPD [2]; Example 6, humanized mice with whole huPBMC, n=12) | tumor metastasis in other organs at necropsy (EBV-LPD [2]; day 100, surviving 7 mice) | effects on survival, tumor occurrence and tumor volume (EBV-LPD [3])
1 | C/C=C/[C@H]1O[C@@](O)([C@@H](C)[C@H](O)[C@H](C)[C@H]2OC(=O)/C(OC)=C/C(C)=C/[C@@H](C)[C@@H](O)[C@@H](CC)[C@@H](O)[C@H](C)C/C(C)=C/C=C/[C@@H]2OC)C[C@@H](O[C@H]2C[C@@H](O)[C@H](OC(N)=O)[C@@H](C)O2)[C@@H]1C [CMA, concanamycin A] | strongly inhibited | – | – | – | – | – | – | – | – | – | – | – | – | – | – | – | – | –
2 | NCCC(O)(P(=O)(O)O)P(=O)(O)O [pamidronate] | – | induced selective activation and expansion | 198 | 156-309 fold | 82 | 67-95% | 12.5 | 37.5 | significantly increased | up to 98 days | significantly prolonged | significantly lower tumor incidence | reduced tumor volume | reduced tumor occurrence | decreased tumor volume | significantly prolonged survival | failed to show any evidence of tumor metastasis | had no such effects
3 | Bcl-2: granzyme B inactivator Bcl-2 (R&D Systems) | strongly inhibited | – | – | – | – | – | – | – | – | – | – | – | – | – | – | – | – | –
